Measured values published in paper PMC13403234, “Engineering Cathepsin S Selective Chemical Probes and Antibody−Drug Conjugates through Substrate Profiling with Unnatural Amino Acids” (Journal of Medicinal Chemistry, 2026).
*1 amine or outer side, *2 acyl side, *3 side chain or, on linkers, in order; H or OH if unused. Where a SMILES comes first, the peptide text is derived from it. [ ]: non-standard residue; d: D form. The star is where a group is joined. Dolaproine = CO[C@@H]([C@@H]1CCCN1)[C@@H](C)C(=O)O; Dil = CC[C@H](C)[C@H](NC)[C@@H](CC(=O)O)OC; Met(O2) = CS(=O)(=O)CC[C@H](N)C(=O)O; PABC = O=C(OCc1ccc(N[*:1])cc1)[*:2]; X1 = C[C@@H](N*)[C@@H](O)c1ccccc1; tBuAla = CC(C)(C)C[C@H](N)C(=O)O; Cit = NC(=O)NCCC[C@H](N)C(=O)O; NMeV = CN[C@H](C(=O)O)C(C)C; Cbz = O=C(OCc1ccccc1)*

Tests used:
MDA-MB-231 cells = assay: MTS cell viability assay, MDA-MB-231; type: cell-based, human; settings: TROP-2-positive MDA-MB-231 cells
Protocol: The BT-474 (ATCC HTB-20, RRID: CVCL_0179), MCF-7 (ATCC HTB-22, RRID: CVCL_0031), and MDA-MB-231 (ATCC HTB-26, RRID: CVCL_0062) breast cancer cell lines were cultured at 37 °C in a humidified incubator with 5% CO2. Cells were maintained in Dulbecco’s Modified Eagle Medium (DMEM; Gibco, Cat. No. 41965−039) supplemented with 10% fetal bovine serum (FBS; Gibco, Cat. No. A5256801), L-glutamine, sodium pyruvate, penicillin […], and streptomycin (0.1 mg/mL). All cell lines were routinely tested for mycoplasma contamination (every 12−16 weeks) using a PCR-based detection kit.
Cell viability was evaluated using the MTS assay (CellTiter 96 AQueous One Solution Cell Proliferation Assay, Promega, Cat. No. G358B) according to the manufacturer’s instructions. BT-474 cells were seeded at a density of 20,000 cells/well, while MCF-7 and MDA-MB-231 cells were seeded at 5,000 cells/well in 96-well plates and allowed to adhere overnight. Peptide prodrugs, free MMAE (used as a control), or ADCs were added in serial dilutions. For peptide prodrugs and MMAE, concentrations ranged from 0.001 to 10 μM; for ADCs, from 0.03 to 3 μM. […] Absorbance was measured at 490 nm. Background absorbance (blank wells) was subtracted from all readings, and cell viability was calculated as a percentage relative to untreated controls. […]

[1] = ADC stability in mouse serum (free MMAE by LC-MS/MS); type: in vitro ADME; settings: anti-TROP-2 sacituzumab-based ADCs, up to 1 week, 37 °C
Protocol: Selected ADCs were incubated at 0.1 mg/mL in 100 μL of plasma samples for 24, 48, 72, and 168 h at 37 °C. The samples were then frozen at −80 °C and subjected to LC-MS/MS analysis. Stock solutions of MMAE and MMAE-d 8 standards were prepared in DMSO at a concentration of 10 mM and stored at −20 °C until use. Calibration solutions were prepared by diluting the stock solutions with methanol/ethanol (50:50, v/v). Mouse and human serum were purchased from Sigma-Aldrich. The concentration of MMAE in serum samples was determined based on the method described by Mak et al., with minor modifications. Briefly, 10 μL of serum was spiked with 5 μL of 25 nM MMAE-d 8 as an internal standard (IS), followed by the addition of 35 μL of ice-cold ethanol/methanol (50:50, v/v). The mixture was vortexed for 5 min and then incubated at − 20 °C for 30 min to precipitate proteins. The samples were subsequently centrifuged for 30 min at 20,000 × g and 4 °C. The supernatant was collected and subjected to LC-MS analysis. A Waters Acquity Premier UPLC system (Massachusetts, USA), consisting of a binary pump, thermostatic column holder, and refrigerated sample manager, was used for chromatographic separation. Separation was performed on an Acquity UPLC BEH C18 column (2.1 × 50 mm, 1.7 μm) using 0.1% formic acid in water as mobile phase A and 0.1% formic acid in methanol as mobile phase B. The column temperature and sample manager temperature were maintained at 45 and 15 °C, respectively. The injection volume was 1 μL, and the flow rate was 0.3 mL/min. The gradient started at 20% B, increased to 90% B over 3 min, and was held at 90% B for 2 min. Finally, the column was equilibrated back to 20% B for 1 min. The total run time was 6 min. MS analysis was performed using a Waters Xevo TQ-Absolute XR triple quadrupole mass spectrometer (Massachusetts, USA) equipped with an electrospray ionization interface. Samples were analyzed in positive multiple reaction monitoring (MRM) mode. […] MMAE and MMAE-d8 were detected based on their characteristic MRM transitions and retention times. […]

Cathepsin S [2] = target: T1, Cathepsin S (Homo sapiens, UniProt P25774); assay: Prodrug cleavage / MMAE release by LC-MS, cathepsin S; type: biochemical; settings: prodrug 50 μM, pH 5.5, 37 °C, 0-120 min
T1 construct: made in house
T1 sequence (P25774 115-331): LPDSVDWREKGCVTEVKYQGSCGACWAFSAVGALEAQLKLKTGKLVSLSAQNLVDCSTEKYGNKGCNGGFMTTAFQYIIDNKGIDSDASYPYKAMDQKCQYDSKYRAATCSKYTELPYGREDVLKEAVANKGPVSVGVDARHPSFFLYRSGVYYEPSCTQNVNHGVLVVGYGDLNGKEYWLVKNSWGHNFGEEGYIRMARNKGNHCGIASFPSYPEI
Protocol: (§1) Cleavage assays were conducted at 37 °C in 1 mL reaction volumes using acetate buffer composed of 100 mM sodium acetate (pH 5.5), 100 mM NaCl, 1 mM EDTA, and 5 mM DTT. Buffers were prepared at room temperature and equilibrated before use. Prodrugs were initially dissolved in DMSO at a stock concentration of 10 mM, then diluted into the reaction buffer to a final concentration of 50 μM, maintaining a DMSO concentration below 0.5% (v/v). Reactions were initiated by the addition of recombinant cathepsin and carried out in glass LC-MS vials incubated at 37 °C. At specified time points (0, 5, 30, 60, and 120 min), aliquots were taken and directly injected into the LC-MS system without further processing. Quantification of MMAE release was based on absorbance at 220 nm. The area under the MMAE peak was integrated, and the amount of released MMAE was plotted as a function of time. Each time point was measured in triplicate, and results are presented as mean ± standard deviation (SD). A standard curve was prepared using free MMAE at concentrations of 1, 5, 10, 20, and 50 μM to enable accurate quantification of MMAE released from the prodrugs.

cathepsins B, L, and V = assay: Prodrug cleavage / MMAE release by LC-MS, other cathepsins; type: biochemical, human; settings: prodrug 50 μM, pH 5.5, 37 °C
Protocol: as §1

Cathepsin S [3] = target: T1, Cathepsin S; assay: Second-order rate constants of inhibition (kobs/[I]), cathepsin S; type: biochemical; settings: Figure 4D
Protocol: (§2) All kinetic studies were performed using an fMax fluorescence plate reader (Molecular Devices) in kinetic mode with 96- or 384-well plates. ACC fluorescence was monitored at excitation and emission wavelengths of 355 and 460 nm, respectively. Recombinant human cysteine cathepsins L, V, B, K, and S were expressed and purified as previously described. Prior to use, all cysteine cathepsins were titrated with E64 to normalize enzymatic activity. Assays for cathepsins were conducted in 100 mM sodium acetate buffer containing 10 mM NaCl and 10 mM DTT (pH 5.5). Breast cancer cell lysates (BT-474, MCF-7, MDA-MB-231) were prepared by culturing cells to confluence in the appropriate media, replacing media with PBS, and harvesting the cells using a cell scraper (without trypsin). The cells were pelleted by centrifugation (400 × g, 5 min), resuspended in PBS, and centrifuged again under the same conditions. After removal of the supernatant, the pellet was resuspended in cathepsin assay buffer (excluding DTT) and sonicated. Lysates were then clarified by centrifugation (12,000 × g, 5 min), and the supernatants were collected and stored at −80 °C until use. All enzymatic assays, including HyCoSuL library screening and kinetic analyses of synthetic substrates, inhibitors, probes and prodrugs, were conducted at 37 °C and repeated at least three times. Mean values are reported. Kinetic data were analyzed using GraphPad Prism software (version 10.4.1).
(§3) The second-order rate constants of inhibition (k obs/[I]) were determined for human recombinant cathepsins S, B, L, and V using their respective assay buffers. All measurements were performed under pseudo-first-order kinetic conditions, as previously described. Inhibitors or ABPs were serially diluted in assay buffer and transferred to a 96-well plate. Each well was supplemented with the fluorogenic substrate Cbz-Phe-Arg-AMC at a final concentration of 25 μM and preincubated for 15 min. In parallel, enzymes were preactivated in assay buffer for 15 min at room temperature. Following preincubation, the activated enzymes were added to the wells, and fluorescence was monitored immediately for 30 min. The k obs/[I] values (M^-1S^-1) were calculated from the progress curves and averaged from at least three independent experiments. Final inhibitor (or ABP) concentrations were maintained at a minimum of 5-fold excess relative to enzyme concentrations to ensure pseudo-first-order conditions. Results were analyzed in GraphPad Prism and are reported as mean ± standard deviation.

Cathepsin L = target: T2, Cathepsin L (Homo sapiens, UniProt P07711); assay: Second-order rate constants of inhibition (kobs/[I]), cathepsin L; type: biochemical; settings: Figure 4D; Cy5- and BODIPY-labeled probes
T2 construct: made in house
T2 sequence (P07711 114-333): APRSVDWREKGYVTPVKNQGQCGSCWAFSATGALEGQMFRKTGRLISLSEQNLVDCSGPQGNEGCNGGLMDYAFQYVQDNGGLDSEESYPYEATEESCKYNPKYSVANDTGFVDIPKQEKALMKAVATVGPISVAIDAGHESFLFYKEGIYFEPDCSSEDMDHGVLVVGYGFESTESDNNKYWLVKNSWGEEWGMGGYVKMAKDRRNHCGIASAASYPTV
Protocol: as §2, §3

Cathepsin V = target: T3, Cathepsin V (Homo sapiens, UniProt O60911); assay: Second-order rate constants of inhibition (kobs/[I]), cathepsin V; type: biochemical; settings: Figure 4D; Cy5- and BODIPY-labeled probes
T3 construct: made in house
T3 sequence (O60911 114-334): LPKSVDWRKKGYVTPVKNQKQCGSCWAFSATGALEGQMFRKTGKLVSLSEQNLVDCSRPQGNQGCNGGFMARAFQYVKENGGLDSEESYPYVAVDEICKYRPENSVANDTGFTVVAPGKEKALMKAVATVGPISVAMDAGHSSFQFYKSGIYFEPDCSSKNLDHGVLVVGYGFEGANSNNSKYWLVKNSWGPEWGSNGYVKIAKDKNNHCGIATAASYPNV
Protocol: as §2, §3

[4] = target: T4, active cathepsin S in MDA-MB-231 live cells (Homo sapiens, UniProt P25774); assay: Labeling of active cathepsin S in MDA-MB-231 live cells with Cy5 probes; type: cell-based; settings: probe 1 μM, 0,5 to 24 h
T4 construct: endogenous in cells; host or cells: MDA-MB-231
T4 sequence (P25774 115-331): as the sequence (P25774 115-331) above
Protocol: (§4) 50,000 of MDA-MB-231 cells were seeded into 12-well plate and allowed to attach overnight. The next day, OG-233 and OG-234 probes (1 μM final concentration) were added to the cells and incubated for various times (from 0,5 h up to 24 h). Control cells were preincubated with cathepsin S inhibitors (JN1, JN4, JN7) at 25 μM for 2 h, and then incubated with OG-233 or OG-234 probes for 24 h. Next, cells were harvested and prepared for SDS-PAGE analysis as described in the above section. Electrophoresis was run for 25 min (4−12% Bis-Tris Plus 10-well gel, 200 V). Next, proteins were transferred onto the membrane (0.2 μm nitrocellulose membrane, 10 V, 60 min) and Ponceau S was used to verify equal loading and transfer. Membranes were then blocked with 5% BSA in TBS-T buffer for 1 h at RT. Membranes were next incubated anticathepsin S antibody (1:1,000, overnight, 4 °C), and the next day with a secondary antibody (IRDye 800CW, donkey anti-Goat) for 30 min at RT, and scanned at 680 and 800 nm using the Sapphire biomolecular imager (Azure Biosystems) to detect the Cy5 probes and cathepsin S. All images were analyzed with Image Studio software.

Cathepsin B [5] = target: T5, Cathepsin B (Homo sapiens, UniProt P07858); assay: Second-order rate constants of inhibition (kobs/[I]), cathepsin B; type: biochemical; design: made in house; settings: Figure 4D; Cy5- and BODIPY-labeled probes
Protocol: as §2, §3

Cathepsin B [6] = target: T5, Cathepsin B; assay: Labeling of cathepsin B in MDA-MB-231 live cells with Cy5 probes; type: cell-based; design: endogenous in cells; host or cells: MDA-MB-231; settings: cellular environments; probe labeling
Protocol: as §4

Compound | cytotoxicity of sacituzumab (anti-TROP-2) ADCs (MDA-MB-231 cells) | payload release [1] | cleavage / free MMAE release by cathepsin S (Cathepsin S [2]) | cleavage / free MMAE release by other cathepsins (cathepsins B, L, and V) | also measured
313 anti-TROP-2 ADC: sacituzumab (anti-TROP-2) ADC with Phe(F5)-Cit-Lys(2ClZ)-Glu(Me) linker, PABC spacer and MMAE payload | moderate toxicity | approximately 6% |  |  | 
314 anti-TROP-2 ADC: sacituzumab (anti-TROP-2) ADC with Met(O2)-Cit-NptGly-Glu(Me) linker, PABC spacer and MMAE payload | markedly more potent | approximately 6% |  |  | 
CC[C@H](C)[C@@H]([C@@H](CC(=O)N1CCC[C@H]1[C@H](OC)[C@@H](C)C(=O)N[C@H](C)[C@@H](O)c1ccccc1)OC)N(C)C(=O)[C@@H](NC(=O)[C@H](C(C)C)N(C)C(=O)OCc1ccc(NC(=O)[C@H](CCCNC(N)=O)NC(=O)[C@@H](NC(=O)OCc2ccccc2)C(C)C)cc1)C(C)C [compound 300, Cbz-Val-Cit-PABC-MMAE, reference compound] (Cbz-V[Cit][PABC][NMeV]V[Dil][Dolaproine]-X1; N-terminus and C-terminus assumed) |  |  | efficiently cleaved by cathepsins S, B, L, and V | efficiently cleaved by cathepsins S, B, L, and V | 
CC[C@H](C)[C@@H]([C@@H](CC(=O)N1CCC[C@H]1[C@H](OC)[C@@H](C)C(=O)N[C@H](C)[C@@H](O)c1ccccc1)OC)N(C)C(=O)[C@@H](NC(=O)[C@H](C(C)C)N(C)C(=O)OCc1ccc(NC(=O)[C@H](CCC(=O)OC)NC(=O)[C@H](CC(C)(C)C)NC(=O)[C@H](CCCNC(N)=O)NC(=O)[C@H](CCS(C)(=O)=O)NC(C)=O)cc1)C(C)C [compound 314, Ac-Met(O2)-Cit-NptGly-Glu(Me)-PABC-MMAE] (Ac-[Met(O2)][Cit][tBuAla]E(OMe)[PABC][NMeV]V[Dil][Dolaproine]-X1) |  |  | also cleaved by cathepsin S | moderate cross-reactivity toward other cathepsins | 
ADC 300: sacituzumab (anti-TROP-2) ADC with pan-cathepsin Val-Cit linker, PABC spacer and MMAE payload |  | 1.5% |  |  | 
Cy5-PEG(4)-Met(O2)-Cit-NptGly-Glu(Me)-AOMK [OG-234] |  |  |  |  | kobs/[I] Cath S (Cathepsin S [3]; Cy5- and BODIPY-labeled probes): 253,000 M^-1s^-1; Selectivity S to B (Cathepsin S [3]; calculated from kobs/[I], cathepsin S over cathepsin B): 23; Selectivity S to L (Cathepsin S [3]; calculated from kobs/[I], cathepsin S over cathepsin L): 46; Selectivity S to V (Cathepsin S [3]; calculated from kobs/[I], cathepsin S over cathepsin V): 32; kobs/[I] Cath L (Cathepsin L): 5,530 M^-1s^-1; kobs/[I] Cath V (Cathepsin V): 7,900 M^-1s^-1; detection of active cathepsin S in living cells [4]: able to detect active cathepsin S as soon as upon 3 h incubation; kobs/[I] Cath B (Cathepsin B [5]): 11,200 M^-1s^-1; off-target labeling of cathepsin B in cells (Cathepsin B [6]): minor off-target labeling of cathepsin B
